In brackets after ≈: the same amount, converted by molar mass. Entries after “also recorded” stand apart in the source; their conditions may differ. Where two headings read alike, the source gives them in different places.
Columns and labels:
[1] = molecular target: T1, M. tuberculosis leucyl-tRNA synthetase (LeuRS) (Mycobacterium tuberculosis, UniProt P9WFV1); experiment: biochemical; format: biochemical
T1 construct: made in house; host or cells: Escherichia coli

[2] = molecular target: T2, M. tuberculosis methionyl-tRNA synthetase (MetRS) (Mycobacterium tuberculosis, UniProt P9WFU5); design: method as in PMID 31691918; conditions: from the previous article ref 22; cited from earlier work
T2 construct: made in house; host or cells: Escherichia coli
T2 sequence (P9WFU5 whole entry): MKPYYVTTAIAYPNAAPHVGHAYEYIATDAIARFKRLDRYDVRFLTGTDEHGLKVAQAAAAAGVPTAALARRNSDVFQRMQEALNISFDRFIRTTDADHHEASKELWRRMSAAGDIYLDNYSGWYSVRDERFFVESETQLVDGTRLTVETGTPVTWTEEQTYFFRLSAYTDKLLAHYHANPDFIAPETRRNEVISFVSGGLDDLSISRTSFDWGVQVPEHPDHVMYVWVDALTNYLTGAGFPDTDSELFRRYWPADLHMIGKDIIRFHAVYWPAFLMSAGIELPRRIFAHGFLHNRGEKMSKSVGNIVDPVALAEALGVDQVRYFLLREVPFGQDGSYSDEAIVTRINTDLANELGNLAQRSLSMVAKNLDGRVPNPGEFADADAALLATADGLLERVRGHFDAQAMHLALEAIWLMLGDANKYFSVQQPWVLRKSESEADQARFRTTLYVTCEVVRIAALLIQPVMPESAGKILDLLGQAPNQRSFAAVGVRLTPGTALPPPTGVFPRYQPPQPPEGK

M. tuberculosis = tested on: M. tuberculosis; design: method as in PMID 31691918; conditions: earlier identified hit; cited from earlier work
[3] = molecular target: T1, M. tuberculosis leucyl-tRNA synthetase (LeuRS); design: method as in PMID 31691918; conditions: from the previous article ref 22; cited from earlier work
[4] = tested on: Mycobacterium avium (ATCC 700,891 MAC 101); experiment: microbe, parasite or virus in culture; format: cell-based; conditions: > 80% reduction in growth, screened at 20, 2 and 0.2 mg/L, 7H9 complete medium
[5] = molecular target: T2, M. tuberculosis methionyl-tRNA synthetase (MetRS); experiment: biochemical; format: biochemical
M. tuberculosis H37Rv [6] = experiment: microbe, parasite or virus in culture; format: cell-based; conditions: > 80% reduction in growth, screened at 20, 2 and 0.2 mg/L, 7H9 complete medium
[7] = tested on: Mycobacterium abscessus (ATCC 19,977); experiment: microbe, parasite or virus in culture; format: cell-based; conditions: > 80% reduction in growth, screened at 20, 2 and 0.2 mg/L, 7H9 complete medium
human cytoplasmic LeuRS = tested on: human cytoplasmic LeuRS; design: method as in PMID 28953378; conditions: cited from earlier work
[8] = tested on: human mitochondrial LeuRS; design: method as in PMID 28953378; conditions: cited from earlier work
tuberculosis = tested on: tuberculosis; design: method as in PMID 28953378; conditions: cited from earlier work
mycobacterial LeuRS = tested on: mycobacterial LeuRS; design: method as in PMID 28953378; conditions: cited from earlier work
[9] = tested on: Staphylococcus aureus MetRS; design: method as in PMID 19015366; conditions: S. aureus MetRS versus human mitochondrial MetRS; cited from earlier work
[10] = tested on: HEK293 (human embryonic kidney 293); experiment: MTT cytotoxicity assay, HEK293; format: cell-based; conditions: 3.125 µM to 50 µM
Method: (§1) We have tested compound 27 for cytotoxicity toward human cell lines HEK293 (human embryonic kidney 293) and HepG2 (human hepatocellular carcinoma cell line) using standard MTT assay.
(§2) Compound cytotoxicity was determined by standard MTT assay[37] using human embryonic kidney 293 (HEK293) and human hepatocellular carcinoma (HepG2) cell lines according to the method described previously. HEK 293 cell line was obtained from the Russian Cell Culture Collection (Institute of Cytology of the Russian Academy of Science, St.Petersburg, Russia) and HepG2 – from the Bank of Cell Lines from human and animal tissue (R. E. Kavetsky Institute of Experimental Pathology, Oncology and Radiobiology, NAS of Ukraine, Kyiv, Ukraine).

[11] = MTT cytotoxicity assay, HEK293; format: cell-based, human; conditions: human, hek293 cells, read-out: CC50, concentration to cause 50% cytotoxicity
Method: as §1, §2

[12] = tested on: HepG2 (human hepatocellular carcinoma cell line); experiment: MTT cytotoxicity assay, HepG2; format: cell-based; conditions: 3.125 µM to 50 µM
Method: as §1, §2

[13] = MTT cytotoxicity assay, HepG2; format: cell-based, human; conditions: human, hepg2 cells, read-out: CC50, concentration to cause 50% cytotoxicity
Method: as §1, §2

M. tuberculosis H37Rv [14] = experiment: microbe, parasite or virus in culture; format: cell-based, Mycobacterium tuberculosis; conditions: read-out: 2-week MIC
[15] = recombinant enzyme, mean ± spread (n in brackets), negative = activation

T1 sequence (P9WFV1 whole entry): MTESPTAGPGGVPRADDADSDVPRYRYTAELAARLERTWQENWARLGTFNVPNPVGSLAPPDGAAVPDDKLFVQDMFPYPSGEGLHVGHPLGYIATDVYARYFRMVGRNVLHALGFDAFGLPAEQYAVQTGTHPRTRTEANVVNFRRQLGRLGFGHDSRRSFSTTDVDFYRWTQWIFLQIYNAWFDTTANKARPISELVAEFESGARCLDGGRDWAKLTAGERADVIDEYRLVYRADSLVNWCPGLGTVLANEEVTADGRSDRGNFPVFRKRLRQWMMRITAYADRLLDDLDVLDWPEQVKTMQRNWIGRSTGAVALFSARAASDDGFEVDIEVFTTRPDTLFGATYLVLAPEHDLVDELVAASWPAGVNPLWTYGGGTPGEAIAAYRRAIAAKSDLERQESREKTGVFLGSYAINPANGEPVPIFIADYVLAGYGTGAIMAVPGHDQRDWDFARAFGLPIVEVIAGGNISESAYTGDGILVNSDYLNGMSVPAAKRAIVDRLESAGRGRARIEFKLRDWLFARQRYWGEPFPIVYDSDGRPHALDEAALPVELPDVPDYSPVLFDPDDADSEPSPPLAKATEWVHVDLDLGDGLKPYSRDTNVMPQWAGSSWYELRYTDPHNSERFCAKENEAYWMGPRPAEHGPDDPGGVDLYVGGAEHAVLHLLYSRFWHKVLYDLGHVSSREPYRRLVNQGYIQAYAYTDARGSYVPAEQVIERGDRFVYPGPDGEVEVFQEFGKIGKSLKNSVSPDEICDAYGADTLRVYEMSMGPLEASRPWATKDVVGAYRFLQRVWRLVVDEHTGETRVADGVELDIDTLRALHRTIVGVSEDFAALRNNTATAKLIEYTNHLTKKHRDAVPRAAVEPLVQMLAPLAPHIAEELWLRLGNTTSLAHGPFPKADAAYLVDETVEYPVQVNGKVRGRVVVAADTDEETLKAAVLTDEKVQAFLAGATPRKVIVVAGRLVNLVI

SMILES: COc1ccc(-n2nnc(-c3nc(-c4ccc(F)cc4)no3)c2N)cc1Cl [Compound 17, 3-(3-chloro-4-methoxy-phenyl)-5-[3-(4-fluoro-phenyl)-[1,2,4]oxadiazol-5-yl]-3H-[1,2,3]triazol-4-ylamine]
- LeuRS inhibition activity, % [1, 15]: 51 ± 28 (2) %
- IC50 [2]: 13.8 µM
- antibacterial activity toward M. tuberculosis (M. tuberculosis): does not have antibacterial activity
- IC50 [3]: 13 µM
- Growth inhibition cutoff, M. avium 700,891 (MAC 101) [4]: > 20 mg/L
- MetRS inhibition activity, % [5, 15]: 77 ± 3 (2) %
- Growth inhibition cutoff, H37Rv (M. tuberculosis H37Rv [6]): > 20 mg/L
- Growth inhibition cutoff, M. abscessus 19,977 [7]: > 20 mg/L

SMILES: NC[C@H]1OB(O)c2c(OCCO)ccc(Cl)c21 [GSK656, (S)-3-(Aminomethyl)-4-chloro-7-(2-hydroxyethoxy) benzo [c][1, 2] oxaborol-1 (3 H)-ol]
- IC50 (human cytoplasmic LeuRS): > 300 µM
- IC50 [8]: > 300 µM
- efficacy in an animal model of tuberculosis (tuberculosis): effective
- IC50 (mycobacterial LeuRS): 0.2 µM

SMILES: C=C(F)c1sc(CNCCCNc2cc(O)c3ccccc3n2)c(C)c1Br [REP8839]
- affinity for the bacterial enzyme relative to human mitochondrial MetRS [9]: 1000 fold

SMILES: COc1cccc(-n2nnc(-c3nc(-c4ccc(F)cc4)no3)c2N)c1 [Compound 20]
- LeuRS inhibition activity, % [1, 15]: 29 ± 25 (2) %
- Growth inhibition cutoff, M. avium 700,891 (MAC 101) [4]: > 20 mg/L
- MetRS inhibition activity, % [5, 15]: 37 ± 17 (3) %
- Growth inhibition cutoff, H37Rv (M. tuberculosis H37Rv [6]): > 20 mg/L
- Growth inhibition cutoff, M. abscessus 19,977 [7]: > 20 mg/L

SMILES: CCOc1ccc(-c2noc(-c3nnn(-c4ccccc4Cl)c3N)n2)cc1 [Compound 40]
- LeuRS inhibition activity, % [1, 15]: 36 ± 16 (3) %
- Growth inhibition cutoff, M. avium 700,891 (MAC 101) [4]: > 20 mg/L
- MetRS inhibition activity, % [5, 15]: 22 ± 14 (2) %
- Growth inhibition cutoff, H37Rv (M. tuberculosis H37Rv [6]): > 20 mg/L
- Growth inhibition cutoff, M. abscessus 19,977 [7]: > 20 mg/L

SMILES: COc1ccc(Cl)cc1-n1nnc(-c2nc(-c3ccc(F)cc3)no2)c1N [Compound 27]
- LeuRS inhibition activity, % [1]: 14 ± 12 (2) %
- MIC ([4]; Mycobacterium avium, ATCC700, read-out: Growth inhibition cutoff, M. avium 700,891 (MAC 101)): > 20 µg/mL
- MetRS inhibition activity, % [5]: 57 ± 11 (3) %
- IC50 ([5]; mean ± s.d. (n = 3)): 148 ± 33.2 µM
- cytotoxicity / effect on cell viability [10]: did not affect cell viability; also recorded: not cytotoxic
- CC50 [11]: > 50 µM
- MIC (M. tuberculosis H37Rv [6]; Mycobacterium tuberculosis, H37RV, read-out: Growth inhibition cutoff, H37Rv): > 20 µg/mL
- MIC ([7]; Mycobacteroides abscessus, ATCC19, read-out: Growth inhibition cutoff, M. abscessus 19,977): > 20 µg/mL
- cytotoxicity / effect on cell viability [12]: did not affect cell viability; also recorded: not cytotoxic
- CC50 [13]: > 50 µM
- MIC (M. tuberculosis H37Rv [14]; Mycobacterium tuberculosis, H37RV, 336 h): 25 µM (≈ 9.67 µg/mL)
- MIC (M. tuberculosis H37Rv [14]): > 50 µM
